Tests used:
Type in all cases: cell-based
[1] = target: T1, Protein cereblon/Androgen receptor (Homo sapiens) (UniProt P10275+Q96SW2); test: Protac activity at CRBN/AR in human MCF7 cells assessed as induction of AR protein degradation incubated for 8 to 24 hrs by western blot analysis; details: time hrs 8-24
[2] = target: T2, Protein cereblon/Estrogen receptor (Homo sapiens) (UniProt P03372+Q96SW2); test: Protac activity at CRBN/ERalpha in human MCF7 cells assessed as induction of ERalpha protein degradation incubated for 8 to 24 hrs by western blot analysis; details: time hrs 8-24
T2 sequence (P03372 whole entry, looked up): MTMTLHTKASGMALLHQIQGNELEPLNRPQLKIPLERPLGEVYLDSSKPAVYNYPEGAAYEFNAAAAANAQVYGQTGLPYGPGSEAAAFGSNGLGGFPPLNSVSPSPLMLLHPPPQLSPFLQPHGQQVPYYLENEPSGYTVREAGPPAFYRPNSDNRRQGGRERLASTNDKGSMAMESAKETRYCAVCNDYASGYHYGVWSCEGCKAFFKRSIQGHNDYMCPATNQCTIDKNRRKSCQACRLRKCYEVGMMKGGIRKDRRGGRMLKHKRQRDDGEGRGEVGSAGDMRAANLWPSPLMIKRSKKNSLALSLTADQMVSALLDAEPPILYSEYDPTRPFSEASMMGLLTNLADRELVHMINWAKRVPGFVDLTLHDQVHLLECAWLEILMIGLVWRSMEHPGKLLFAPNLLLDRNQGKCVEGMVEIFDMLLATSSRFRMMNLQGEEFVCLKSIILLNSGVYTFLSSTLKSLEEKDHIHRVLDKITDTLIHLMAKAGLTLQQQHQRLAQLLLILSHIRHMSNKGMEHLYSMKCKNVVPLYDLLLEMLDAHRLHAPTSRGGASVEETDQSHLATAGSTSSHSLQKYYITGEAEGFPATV
T2 sequence (Q96SW2 whole entry, looked up): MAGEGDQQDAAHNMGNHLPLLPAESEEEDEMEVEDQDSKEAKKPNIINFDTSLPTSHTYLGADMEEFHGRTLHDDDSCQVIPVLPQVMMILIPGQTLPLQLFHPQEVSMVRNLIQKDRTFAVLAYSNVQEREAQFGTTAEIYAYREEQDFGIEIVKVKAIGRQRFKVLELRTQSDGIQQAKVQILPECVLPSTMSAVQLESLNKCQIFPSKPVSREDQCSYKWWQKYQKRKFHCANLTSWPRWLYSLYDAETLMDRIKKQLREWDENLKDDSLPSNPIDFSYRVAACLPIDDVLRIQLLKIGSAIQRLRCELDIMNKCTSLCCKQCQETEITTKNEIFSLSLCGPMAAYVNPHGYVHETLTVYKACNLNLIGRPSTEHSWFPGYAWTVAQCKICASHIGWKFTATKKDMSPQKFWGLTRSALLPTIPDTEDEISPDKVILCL

[3] = target: T1, Protein cereblon/Androgen receptor (Homo sapiens); test: Protac activity at CRBN/AR in human MCF7 cells assessed as induction of AR protein degradation by measuring AR protein level at 10 uM incubated for 8 hrs by western blot analysis relative to lamin B
[4] = target: T1, Protein cereblon/Androgen receptor (Homo sapiens); test: Protac activity at CRBN/AR in human MCF7 cells assessed as induction of AR protein degradation by measuring AR protein level at 5 uM incubated for 8 hrs by western blot analysis relative to lamin B
[5] = target: T1, Protein cereblon/Androgen receptor (Homo sapiens); test: Protac activity at CRBN/AR in human MCF7 cells assessed as induction of AR protein degradation by measuring AR protein level at 20 uM incubated for 8 hrs by western blot analysis relative to lamin B
[6] = target: T2, Protein cereblon/Estrogen receptor (Homo sapiens); test: Protac activity at CRBN/ERalpha in human MCF7 cells assessed as induction of ERalpha protein degradation by measuring ERalpha protein level at 5 uM incubated for 8 hrs by western blot analysis relative to lamin B
[7] = target: T2, Protein cereblon/Estrogen receptor (Homo sapiens); test: Protac activity at CRBN/ERalpha in human MCF7 cells assessed as induction of ERalpha protein degradation by measuring ERalpha protein level at 10 uM incubated for 8 hrs by western blot analysis relative to lamin B
[8] = target: T2, Protein cereblon/Estrogen receptor (Homo sapiens); test: Protac activity at CRBN/ERalpha in human MCF7 cells assessed as induction of ERalpha protein degradation by measuring ERalpha protein level at 20 uM incubated for 8 hrs by western blot analysis relative to lamin B
[9] = target: T1, Protein cereblon/Androgen receptor (Homo sapiens); test: Protac activity at CRBN/AR in human MCF7 cells assessed as induction of AR protein degradation by measuring AR protein level at 5 uM incubated for 24 hrs by western blot analysis relative to lamin B
[10] = target: T1, Protein cereblon/Androgen receptor (Homo sapiens); test: Protac activity at CRBN/AR in human MCF7 cells assessed as induction of AR protein degradation by measuring AR protein level at 10 uM incubated for 24 hrs by western blot analysis relative to lamin B
[11] = target: T1, Protein cereblon/Androgen receptor (Homo sapiens); test: Protac activity at CRBN/AR in human MCF7 cells assessed as induction of AR protein degradation by measuring AR protein level at 20 uM incubated for 24 hrs by western blot analysis relative to lamin B
[12] = target: T2, Protein cereblon/Estrogen receptor (Homo sapiens); test: Protac activity at CRBN/ERalpha in human MCF7 cells assessed as induction of ERalpha protein degradation by measuring ERalpha protein level at 5 uM incubated for 24 hrs by western blot analysis relative to lamin B
[13] = target: T2, Protein cereblon/Estrogen receptor (Homo sapiens); test: Protac activity at CRBN/ERalpha in human MCF7 cells assessed as induction of ERalpha protein degradation by measuring ERalpha protein level at 10 uM incubated for 24 hrs by western blot analysis relative to lamin B
[14] = target: T2, Protein cereblon/Estrogen receptor (Homo sapiens); test: Protac activity at CRBN/ERalpha in human MCF7 cells assessed as induction of ERalpha protein degradation by measuring ERalpha protein level at 20 uM incubated for 24 hrs by western blot analysis relative to lamin B
[15] = target: T3, Protein cereblon/Aryl hydrocarbon receptor (Homo sapiens, UniProt P35869+Q96SW2); test: Protac activity at CRBN/AhR in human MCF7 cells assessed as induction of AhR protein degradation by measuring AhR protein level at 5 uM incubated for 8 hrs by western blot analysis relative to lamin B; details: mcf7, 8 h
T3 sequence (P35869 whole entry): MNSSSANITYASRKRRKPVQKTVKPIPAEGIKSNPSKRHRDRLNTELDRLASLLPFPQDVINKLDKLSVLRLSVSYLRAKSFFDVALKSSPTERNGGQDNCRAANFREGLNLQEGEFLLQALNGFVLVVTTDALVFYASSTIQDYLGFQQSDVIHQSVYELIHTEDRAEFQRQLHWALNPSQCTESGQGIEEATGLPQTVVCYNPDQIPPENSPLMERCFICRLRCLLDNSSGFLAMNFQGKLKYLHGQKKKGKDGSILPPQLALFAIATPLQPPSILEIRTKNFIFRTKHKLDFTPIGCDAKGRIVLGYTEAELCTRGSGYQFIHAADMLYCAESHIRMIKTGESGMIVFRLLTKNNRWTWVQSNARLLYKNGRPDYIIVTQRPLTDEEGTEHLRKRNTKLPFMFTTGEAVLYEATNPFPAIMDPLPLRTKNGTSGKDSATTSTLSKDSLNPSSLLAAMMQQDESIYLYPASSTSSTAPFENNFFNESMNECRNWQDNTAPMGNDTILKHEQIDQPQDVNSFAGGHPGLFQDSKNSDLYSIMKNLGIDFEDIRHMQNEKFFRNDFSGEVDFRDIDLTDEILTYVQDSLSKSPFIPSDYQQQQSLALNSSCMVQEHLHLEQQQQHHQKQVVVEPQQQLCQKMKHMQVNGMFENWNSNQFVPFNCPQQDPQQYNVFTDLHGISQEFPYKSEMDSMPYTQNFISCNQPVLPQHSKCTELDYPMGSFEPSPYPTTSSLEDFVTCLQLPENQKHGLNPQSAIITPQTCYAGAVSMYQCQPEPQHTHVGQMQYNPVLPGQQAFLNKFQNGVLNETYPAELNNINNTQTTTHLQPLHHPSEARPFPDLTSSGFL
T3 sequence (Q96SW2 whole entry): as the sequence (Q96SW2 whole entry, looked up) above

[16] = target: T3, Protein cereblon/Aryl hydrocarbon receptor; test: Protac activity at CRBN/AhR in human MCF7 cells assessed as induction of AhR protein degradation by measuring AhR protein level at 10 uM incubated for 8 hrs by western blot analysis relative to lamin B; details: mcf7, 8 h
[17] = target: T3, Protein cereblon/Aryl hydrocarbon receptor; test: Protac activity at CRBN/AhR in human MCF7 cells assessed as induction of AhR protein degradation by measuring AhR protein level at 20 uM incubated for 8 hrs by western blot analysis relative to lamin B; details: mcf7, 8 h
[18] = target: T3, Protein cereblon/Aryl hydrocarbon receptor; test: Protac activity at CRBN/AhR in human MCF7 cells assessed as induction of AhR protein degradation by measuring AhR protein level at 5 uM incubated for 24 hrs by western blot analysis relative to lamin B; details: mcf7, 24 h
[19] = target: T3, Protein cereblon/Aryl hydrocarbon receptor; test: Protac activity at CRBN/AhR in human MCF7 cells assessed as induction of AhR protein degradation by measuring AhR protein level at 10 uM incubated for 24 hrs by western blot analysis relative to lamin B; details: mcf7, 24 h
[20] = target: T3, Protein cereblon/Aryl hydrocarbon receptor; test: Protac activity at CRBN/AhR in human MCF7 cells assessed as induction of AhR protein degradation by measuring AhR protein level at 20 uM incubated for 24 hrs by western blot analysis relative to lamin B; details: mcf7, 24 h
[21] = target: T1, Protein cereblon/Androgen receptor (Homo sapiens); test: Protac activity at CRBN/AR in human MCF7 cells assessed as induction of AR protein degradation by measuring AR protein level at 20 uM incubated for 8 hrs in presence of proteasome inhibitor, MG132 by western blot analysis relative to lamin B
[22] = target: T1, Protein cereblon/Androgen receptor (Homo sapiens); test: Protac activity at CRBN/AR in human MCF7 cells assessed as induction of AR protein degradation by measuring AR protein level at 20 uM incubated for 8 hrs in presence of ubiquitin activating inhibitor MLN7243 by western blot analysis relative to lamin B
[23] = target: T2, Protein cereblon/Estrogen receptor (Homo sapiens); test: Protac activity at CRBN/ERalpha in human MCF7 cells assessed as induction of ERalpha protein degradation by measuring ERalpha protein level at 20 uM incubated for 8 hrs in presence of proteasome inhibitor, MG132 by western blot analysis relative to lamin B
[24] = target: T2, Protein cereblon/Estrogen receptor (Homo sapiens); test: Protac activity at CRBN/ERalpha in human MCF7 cells assessed as induction of ERalpha protein degradation by measuring ERalpha protein level at 20 uM incubated for 8 hrs in presence of ubiquitin activating inhibitor MLN7243 by western blot analysis relative to lamin B
[25] = target: T3, Protein cereblon/Aryl hydrocarbon receptor; test: Protac activity at CRBN/AhR in human MCF7 cells assessed as induction of AhR protein degradation by measuring AhR protein level at 20 uM incubated for 8 hrs in presence of proteasome inhibitor, MG132 by western blot analysis relative to lamin B; details: mcf7, 8 h
[26] = target: T3, Protein cereblon/Aryl hydrocarbon receptor; test: Protac activity at CRBN/AhR in human MCF7 cells assessed as induction of AhR protein degradation by measuring AhR protein level at 20 uM incubated for 8 hrs in presence of ubiquitin activating inhibitor MLN7243 by western blot analysis relative to lamin B; details: mcf7, 8 h
[27] = target: T1, Protein cereblon/Androgen receptor (Homo sapiens); test: Protac activity at CRBN/AR in CRBN siRNA-transfected human MCF7 cells assessed as induction of AR protein degradation by measuring AR protein level at 20 uM incubated for 8 hrs by western blot analysis relative to lamin B
[28] = target: T2, Protein cereblon/Estrogen receptor (Homo sapiens); test: Protac activity at CRBN/ERalpha in CRBN siRNA-transfected human MCF7 cells assessed as induction of ERalpha protein degradation by measuring ERalpha protein level at 20 uM incubated for 8 hrs by western blot analysis relative to lamin B

T1 sequence (P10275 whole entry, looked up): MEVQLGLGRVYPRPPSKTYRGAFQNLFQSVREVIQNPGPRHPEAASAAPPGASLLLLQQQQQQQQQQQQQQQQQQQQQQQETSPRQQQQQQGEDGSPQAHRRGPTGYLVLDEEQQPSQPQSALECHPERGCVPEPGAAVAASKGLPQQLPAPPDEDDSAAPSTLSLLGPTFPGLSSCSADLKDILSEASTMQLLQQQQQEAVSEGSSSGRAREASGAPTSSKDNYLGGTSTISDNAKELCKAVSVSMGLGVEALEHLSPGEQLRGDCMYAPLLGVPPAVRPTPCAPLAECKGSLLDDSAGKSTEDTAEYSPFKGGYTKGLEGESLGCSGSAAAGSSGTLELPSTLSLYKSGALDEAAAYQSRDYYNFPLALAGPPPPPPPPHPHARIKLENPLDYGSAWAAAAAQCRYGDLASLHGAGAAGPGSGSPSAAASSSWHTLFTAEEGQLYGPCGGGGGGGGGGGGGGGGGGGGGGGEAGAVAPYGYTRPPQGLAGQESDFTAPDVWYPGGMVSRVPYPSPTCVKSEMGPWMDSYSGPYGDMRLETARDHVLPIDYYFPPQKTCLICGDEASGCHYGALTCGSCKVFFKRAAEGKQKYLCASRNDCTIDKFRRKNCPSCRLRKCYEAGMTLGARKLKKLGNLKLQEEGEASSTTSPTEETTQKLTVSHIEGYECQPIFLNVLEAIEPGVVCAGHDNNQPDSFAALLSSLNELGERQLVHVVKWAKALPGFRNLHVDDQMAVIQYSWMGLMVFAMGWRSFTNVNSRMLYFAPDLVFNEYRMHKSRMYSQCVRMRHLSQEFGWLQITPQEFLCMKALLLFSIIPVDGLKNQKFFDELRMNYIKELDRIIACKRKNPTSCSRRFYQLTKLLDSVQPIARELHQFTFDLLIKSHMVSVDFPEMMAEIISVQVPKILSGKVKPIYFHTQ
T1 sequence (Q96SW2 whole entry, looked up): as the sequence (Q96SW2 whole entry, looked up) above

CC[C@H](C)[C@@H]1NC(=O)[C@H](NC(=O)[C@@H](N)CCCCNC(=O)CCOCCOCCOCCOCCOCCNc2cccc3c2C(=O)N(C2CCC(=O)NC2=O)C3=O)CSSC[C@@H](C(=O)N[C@@H](CCCNC(=N)N)C(=O)N[C@@H](CC(C)(C)C)C(=O)N[C@@H](CC(C)C)C(=O)N[C@@H](CCC(N)=O)C(=O)NCC(=O)NCC(=O)NCC(=O)N[C@@H](CCCNC(=N)N)C(=O)N[C@@H](CCCNC(=N)N)C(=O)N[C@@H](CCCNC(=N)N)C(=O)N[C@@H](CCCNC(=N)N)C(=O)N[C@@H](CCCNC(=N)N)C(=O)N[C@@H](CCCNC(=N)N)C(=O)N[C@@H](CCCNC(=N)N)C(N)=O)NC(=O)[C@H](CC(C)C)NC1=O (stereo partly drawn)
Activity [1]: Dose-dependent effect | Activity [2]: Dose-dependent effect | Activity [3]: 80% | Activity [4]: 97% | Activity [5]: 51% | Activity [6]: 108% | Activity [7]: 85% | Activity [8]: 57% | Activity [9]: 84% | Activity [10]: 89% | Activity [11]: 79% | Activity [12]: 85% | Activity [13]: 64% | Activity [14]: 51% | Activity [15]: 124% | Activity [16]: 123% | Activity [17]: 115% | Activity [18]: 101% | Activity [19]: 111% | Activity [20]: 133% | Activity [21]: 92% | Activity [22]: 119% | Activity [23]: 78% | Activity [24]: 117% | Activity [25]: 123% | Activity [26]: 107% | Activity [27]: 93% | Activity [28]: 93%
